HELM strings list units from the 5' end as sugar, base in round brackets, then linkage (d deoxyribose, r ribose, m 2'-O-methyl, p phosphodiester). Strings are as the collection lists them; they lack the last nucleoside at the 3' end of the tested compound. [moe] = 2'-O-(2-methoxyethyl) (MOE); [sp] = phosphorothioate linkage; [m5C] = 5-methylcytosine
Biological target: GFAP
Test: mouse, dose not given
Conditions: ASO

Row | Substance | 3 h FOB score
1 | RNA1{[moe](T)[sp].[moe]([m5C])p.[moe](A)p.[moe](G)p.[moe]([m5C])p.[moe]([m5C])p.d(T)[sp].d(G)[sp].d(G)[sp].d(T)[sp].d(T)[sp].d(A)[sp].d(G)[sp].d([m5C])[sp].d([m5C])[sp].d(T)[sp].[moe](T)p.[moe](T)[sp].[moe]([m5C])}$$$$ (last 3' nucleoside missing) | 4 score 0-7
2 | RNA1{[moe](A)[sp].[moe](T)p.[moe](T)p.[moe](T)p.[moe](G)[sp].d(T)[sp].d([m5C])[sp].d(T)[sp].d(T)[sp].d(T)[sp].d(A)[sp].d(T)[sp].d(T)[sp].d(T)[sp].d(T)[sp].[moe](T)p.[moe]([m5C])p.[moe]([m5C])[sp].[moe](T)}$$$$ (last 3' nucleoside missing) | 0 score 0-7
3 | RNA1{[moe](G)[sp].[moe](T)p.[moe](G)p.[moe]([m5C])p.[moe](T)p.[moe](T)p.d(T)[sp].d(T)[sp].d(G)[sp].d([m5C])[sp].d([m5C])[sp].d([m5C])[sp].d([m5C])[sp].d([m5C])[sp].d(T)[sp].d(G)[sp].[moe](T)p.[moe](A)[sp].[moe](G)}$$$$ (last 3' nucleoside missing) | 3 score 0-7
4 | RNA1{[moe]([m5C])[sp].[moe](T)p.[moe]([m5C])p.[moe]([m5C])p.[moe](A)[sp].d(T)[sp].d([m5C])[sp].d(T)[sp].d([m5C])[sp].d(T)[sp].d(G)[sp].d(G)[sp].d([m5C])[sp].d(A)[sp].d(A)[sp].[moe]([m5C])p.[moe](A)p.[moe](G)[sp].[moe](T)}$$$$ (last 3' nucleoside missing) | 4 score 0-7
5 | RNA1{[moe](T)[sp].[moe](A)p.[moe](T)p.[moe](T)p.[moe](A)[sp].d(G)[sp].d(G)[sp].d(A)[sp].d(T)[sp].d([m5C])[sp].d([m5C])[sp].d([m5C])[sp].d(A)[sp].[moe](T)p.[moe]([m5C])p.[moe](T)[sp].[moe](A)}$$$$ (last 3' nucleoside missing) | 3 score 0-7
6 | RNA1{[moe](T)[sp].[moe]([m5C])p.[moe](T)p.[moe](T)p.[moe](T)[sp].d(A)[sp].d(T)[sp].d(T)[sp].d(T)[sp].d(T)[sp].d(T)[sp].d([m5C])[sp].d([m5C])[sp].[moe](T)p.[moe]([m5C])p.[moe](A)[sp].[moe](G)}$$$$ (last 3' nucleoside missing) | 1 score 0-7
7 | RNA1{[moe]([m5C])[sp].[moe](G)p.[moe](G)p.[moe](A)p.[moe](T)[sp].d([m5C])[sp].d(T)[sp].d([m5C])[sp].d(T)[sp].d(T)[sp].d(T)[sp].d([m5C])[sp].d(A)[sp].d(G)[sp].d(G)[sp].[moe](G)p.[moe]([m5C])p.[moe](T)[sp].[moe](G)}$$$$ (last 3' nucleoside missing) | 5 score 0-7
8 | RNA1{[moe](T)[sp].[moe]([m5C])p.[moe](T)p.[moe](T)p.d(T)[sp].d(A)[sp].d(T)[sp].d(T)[sp].d(T)[sp].d(T)[sp].d(T)[sp].d([m5C])[sp].d([m5C])[sp].d(T)[sp].[moe]([m5C])p.[moe](A)p.[moe](G)p.[moe]([m5C])[sp].[moe](G)}$$$$ (last 3' nucleoside missing) | 1 score 0-7
9 | RNA1{[moe](T)[sp].[moe](G)p.[moe](T)p.[moe](G)p.[moe](A)[sp].d([m5C])[sp].d(T)[sp].d(A)[sp].d(T)[sp].d([m5C])[sp].d(T)[sp].d(A)[sp].d(G)[sp].[moe](G)p.[moe](A)p.[moe](T)[sp].[moe](T)}$$$$ (last 3' nucleoside missing) | 3 score 0-7
10 | RNA1{[moe](A)[sp].[moe](G)p.[moe](G)p.[moe]([m5C])p.[moe](A)p.[moe]([m5C])p.d(A)[sp].d(G)[sp].d(T)[sp].d(T)[sp].d([m5C])[sp].d([m5C])[sp].d([m5C])[sp].d(A)[sp].d(G)[sp].d(A)[sp].[moe](T)p.[moe](A)[sp].[moe]([m5C])}$$$$ (last 3' nucleoside missing) | 1 score 0-7
11 | RNA1{[moe](T)[sp].[moe](T)p.[moe](G)p.[moe](G)p.[moe]([m5C])[sp].d(A)[sp].d(G)[sp].d(T)[sp].d(A)[sp].d(T)[sp].d(T)[sp].d(A)[sp].d([m5C])[sp].d([m5C])[sp].d(T)[sp].[moe]([m5C])p.[moe](T)p.[moe](A)[sp].[moe]([m5C])}$$$$ (last 3' nucleoside missing) | 2 score 0-7
12 | RNA1{[moe](T)[sp].[moe](T)p.[moe](G)p.[moe](G)p.d(T)[sp].d(G)[sp].d([m5C])[sp].d(T)[sp].d(T)[sp].d(T)[sp].d(T)[sp].d(G)[sp].d([m5C])[sp].d([m5C])[sp].[moe]([m5C])p.[moe]([m5C])p.[moe]([m5C])p.[moe](T)[sp].[moe](G)}$$$$ (last 3' nucleoside missing) | 1 score 0-7
13 | RNA1{[moe](G)[sp].[moe]([m5C])p.[moe]([m5C])p.[moe](T)p.[moe](T)[sp].d([m5C])[sp].d([m5C])[sp].d([m5C])[sp].d(T)[sp].d(T)[sp].d(T)[sp].d([m5C])[sp].d([m5C])[sp].d(T)[sp].d(G)[sp].[moe](T)p.[moe]([m5C])p.[moe](T)[sp].[moe](G)}$$$$ (last 3' nucleoside missing) | 5 score 0-7
14 | RNA1{[moe](G)[sp].[moe](A)p.[moe](G)p.[moe](G)p.[moe]([m5C])[sp].d(T)[sp].d(T)[sp].d(T)[sp].d(T)[sp].d(G)[sp].d(A)[sp].d(G)[sp].d(A)[sp].d(T)[sp].d(A)[sp].[moe](T)p.[moe]([m5C])p.[moe](T)[sp].[moe](T)}$$$$ (last 3' nucleoside missing) | 4 score 0-7
15 | RNA1{[moe](A)[sp].[moe](G)p.[moe](T)p.[moe]([m5C])p.[moe](T)[sp].d([m5C])[sp].d(A)[sp].d(G)[sp].d(T)[sp].d(T)[sp].d(T)[sp].d(T)[sp].d([m5C])[sp].d([m5C])[sp].d(T)[sp].[moe]([m5C])p.[moe]([m5C])p.[moe](A)[sp].[moe](G)}$$$$ (last 3' nucleoside missing) | 2 score 0-7
16 | RNA1{[moe](T)[sp].[moe](T)p.[moe](T)p.[moe](T)p.d(G)[sp].d(A)[sp].d(G)[sp].d(A)[sp].d(T)[sp].d(A)[sp].d(T)[sp].d([m5C])[sp].d(T)[sp].d(T)[sp].[moe](G)p.[moe](T)p.[moe](G)p.[moe](A)[sp].[moe]([m5C])}$$$$ (last 3' nucleoside missing) | 3 score 0-7
17 | RNA1{[moe](T)[sp].[moe](T)p.[moe](T)p.[moe](G)p.[moe](T)[sp].d([m5C])[sp].d(T)[sp].d(T)[sp].d(T)[sp].d(A)[sp].d(T)[sp].d(T)[sp].d(T)[sp].[moe](T)p.[moe](T)p.[moe]([m5C])[sp].[moe]([m5C])}$$$$ (last 3' nucleoside missing) | 0 score 0-7
18 | RNA1{[moe](T)[sp].[moe](T)p.[moe](G)p.[moe](G)p.[moe]([m5C])[sp].d(A)[sp].d(G)[sp].d(T)[sp].d(A)[sp].d(T)[sp].d(T)[sp].d(A)[sp].d([m5C])[sp].[moe]([m5C])p.[moe](T)p.[moe]([m5C])[sp].[moe](T)}$$$$ (last 3' nucleoside missing) | 0 score 0-7
19 | RNA1{[moe]([m5C])[sp].[moe](A)p.[moe](T)p.[moe](T)p.[moe](T)p.[moe](G)p.d(T)[sp].d([m5C])[sp].d(T)[sp].d(T)[sp].d(T)[sp].d(A)[sp].d(T)[sp].d(T)[sp].d(T)[sp].d(T)[sp].[moe](T)p.[moe]([m5C])[sp].[moe]([m5C])}$$$$ (last 3' nucleoside missing) | 0 score 0-7
